Experimental data as given in ChEMBL document CHEMBL6071172, “Addressing the Intracellular Vestibule of the Plasmodial Lactate Transporter PfFNT by p-Substituted Inhibitors Amplifies In Vitro Activity” (J Med Chem, 2024).
Active and inactive are the calls of the source. The calls are words filed in the database; no cut-off is given here.

Assays:
[1] = Dissociation constant, pKa of compound; type: physicochemical
Plasmodium falciparum [2] = test: Antiplasmodial activity against Plasmodium falciparum 3D7 infected in erythrocytes incubated for 48 hrs with media replenishment with compound after 24 hrs by LSR II FACS analysis; type: functional, organism-based; details: 3D7, Erythrocyte
Plasmodium berghei = test: Antiplasmodial activity against Plasmodium berghei ANKA infected in malarial mouse model assessed as elimination of parasitemia at 3 to 30 mg/kg/day, po administered for 4 days by flow cytometric analysis relative to control; type: functional; details: dose 3-30 mg/kg/day, time 4 day
[3] = Metabolic stability in pooled human liver microsomes assessed as intrinsic clearance at 1 uM by LC-MS/MS analysis; type: ADME, Microsome; details: read-out: CLH
HepG2 [4] = test: Cytotoxicity against human HepG2 cells assessed as change in redox capability of cytosol upto 100 uM by CellTiter-Glo assay; type: toxicity, cell-based
HepG2 [5] = test: Cytotoxicity against human HepG2 cells assessed as change in ATP level upto 100 uM by CellTiter-Glo assay; type: toxicity, cell-based; details: hepg2, 100 µM
[6] = Half-life in SCID mouse model infected with plasmodium falciparum 3D7 at 50 mg/kg/day, po administered for 4 days; type: ADME, organism-based; details: in vivo, time 4 day
HEK293 [7] = test: Cytotoxicity against HEK293 cells assessed as change in ATP level upto 100 uM by CellTiter-Glo assay; type: toxicity, cell-based; details: human, hek293, 100 µM
HEK293 [8] = test: Cytotoxicity against HEK293 cells assessed as change in redox capability of cytosol upto 100 uM by resazurin dye based fluorescence microplate reader; type: toxicity, cell-based; details: human
Plasmodium falciparum [9] = test: Antiplasmodial activity against Plasmodium falciparum 3D7 infected in SCID mouse model assessed as decrease in parasite load at 150 mg/kg/day, po administered for 4 days; type: functional, organism-based; details: time 4.0 day
[10] = Drug concentration in blood of SCID mouse model infected with plasmodium falciparum 3D7 at 50 mg/kg/day, po administered for 4 days; type: ADME, organism-based; details: time 4 day, read-out: Ct
HEK293 [11] = test: Cytotoxicity against HEK293 cells assessed as reduction in nuclei count at >10 uM by Hoechst 33342 staining based microscopic analysis; type: toxicity, cell-based; details: human, hek293, 10 µM
HepG2 [12] = test: Cytotoxicity against human HepG2 cells assessed as reduction in nuclei count at >10 uM by Hoechst 33342 staining based microscopic analysis; type: toxicity, cell-based; details: hepg2, 10 µM
[13] = Binding affinity to C-terminal GFP tagged Plasmodium falciparum FNT extracted from HEK293 cell membrane assessed as inhibition constant measured 10 times for 5 sec in presence of BH267.meta-DY647 tracer by fluorescence cross-correlation spectroscopic analysis; type: cell membranes
[14] = Inhibition of Plasmodium falciparum FNT extracted from Saccharomyces cerevisiae W303-1A jen1 delta ady2 delta assessed as reduction in [1-14C]-L-lactate uptake preincubated for 20 mins followed by substrate addition by TriCrab liquid scintillation counter
Plasmodium falciparum [15] = test: Antiplasmodial activity against Plasmodium falciparum 3D7 infected in erythrocytes assessed as inhibition of parasite growth at 50 nM incubated for 48 hrs with media replenishment with compound after 24 hrs by LSR II FACS analysis relative to control; type: functional; details: 3D7, Erythrocyte

Compound: FC(F)(F)C(F)(F)c1nc(-c2cccnc2)n[nH]1
- pKa [1]: 8

Compound: O=C(/C=C(\O)C(F)(F)C(F)(F)F)c1ccc(NCc2ccccc2)nc1
- EC50 (Plasmodium falciparum [2]): < 100 nM

Compound: O=C(/C=C(\O)C(F)(F)C(F)(F)F)c1cccnc1
- Activity (Plasmodium berghei): >99.7%
- CLint scaled at 1 µM [3]: 3.98 mL/min/kg

Compound: CCCNc1ccc(C(=O)/C=C(\O)C(F)(F)C(F)(F)F)cn1
- Activity (HepG2 [4]): Non-Toxic
- Activity (HepG2 [5]): Non-Toxic
- half-life [6]: 2 h
- CLint scaled at 1 µM [3]: 462 mL/min/kg
- Activity (HEK293 [7]): Non-Toxic
- Activity (HEK293 [8]): Non-Toxic
- Activity (Plasmodium falciparum [9]): Active
- concentration at 96 h [10]: ~2000 ng/mL
- Activity (HEK293 [11]): Non-Toxic
- Activity (HepG2 [12]): Non-Toxic

Compound: FC(F)(F)C(F)(F)c1cc(-c2cccnc2)n[nH]1
- pKa [1]: 10

Compound: CC(=O)Nc1ccc(C(=O)/C=C(\O)C(F)(F)C(F)(F)F)cn1
- Activity (HepG2 [4]): Non-Toxic
- Activity (HepG2 [5]): Non-Toxic
- EC50 (Plasmodium falciparum [2]): < 100 nM
- CLint scaled at 1 µM [3]: 10.6 mL/min/kg
- Activity (HEK293 [7]): Non-Toxic
- Activity (HEK293 [8]): Non-Toxic
- Activity (HEK293 [11]): Non-Toxic
- Activity (HepG2 [12]): Non-Toxic

Compound: COc1ccc(C(=O)/C=C(\O)C(F)(F)C(F)(F)F)c(O)c1
- Ki [13]: 83 nM
- IC50 [14]: 170 nM
- inhibition at 0.05 µM (Plasmodium falciparum [15]): < 10%
